Assay results as given in patent publication US7947839B2, “Heterocyclic-substituted bis-1,8 naphthalimide compounds, antibody drug conjugates, and methods of use” (Genentech, Inc., priority 2004, dated 2011).
Counter-ions that a name gives are not always drawn. Like-named read-outs stand apart in the source and are kept apart here.

System: BT474, H460, HCT116, HUVEC, LNCAP, MCF7, and PC3 cells
Experiment: free test compound cell-based assay, 7 tumor cell panel (CellTiter-Glo)
Design: species or system Human
Details: NSA = no significant activity; for IC50: Homo sapiens
Experimental: Heterocyclic-substituted bis-1,8-naphthalimide compounds of Formula XV in Table 2 were prepared and tested for in vitro activity against a panel of tumor cells (Example 110).
Alternatively, the efficacy of compounds of the invention can be assayed by the following free test compound cell-based assay protocol
• 1. Prepare each cell line (BT474, H460, HCT116, HUVEC, LNCaP, MCF7, and PC3) at 1 k cells/well in separate plates with Complete Media (CM): RPM1 […]+10% FBS (Fetal Bovine Serum)+1% of 200 mM L-Glutamine. Plate number depends on test compounds provided by submitter. • 2. Detach prospective cell lines by first removing the media. When the flask is empty of media, begin rinsing out individual flasks with 5 mL sterile PBS. Move the PBS around within the flask to rinse well. Decant the PBS and add aseptically 5 mL of Accutase/flask. Make sure the Accutase covers the entire flask. • 3. Immediately place the flask(s) into a 37° C. incubator to allow cells to detach for 5-7 minutes. • 4. Post 5-7 minutes, remove flask(s) from the incubator and begin harvesting the detached cells using a serological pipette. Pipette up and down along the back of the flask to facilitate cell detachment. Pipette the Accutase containing cells into a sterile 50 mL conical tube/cell line. Pipette 10 mL of sterile PBS and re-rinse the flask to obtain remaining cells and dispense it into the same 50 mL conical tube/cell line for a total volume of 15 mL/tube/cell line. • 5. After each cell line has been allocated to a designated tube, take out 100 μL/tube/cell line for the cell counts. While the cell counts are being calculated, centrifuge the 50 mL tubes at 1000 rpm at 4° C. with a high brake. • 6. When centrifugation and cell calculations are completed, decant excess liquid and resuspend the cell pellet(s) using 5 mL CM, depending on calculations. • 7. Using a 5 mL syringe and an 18 G ½ needle, strain the cells to help prevent aggregation. Further strain by using a […] cell filter to block out any huge aggregates not broken down by the needle. • 8. After cell straining and filtering, take out calculated amount for a 1 k cells/well into fresh media. Take the media containing cells and load 100 μL/well into a bottom tissue culture treated flat 96 well plate. • 9. Immediately place in a 37° C. incubator overnight to allow the cells to adhere to the tissue culture treated 96 well plates. Day 2: • 1. Test compounds are submitted at 10 mM in sterile DMSO. • 2. DMSO as negative control and a positive standard are used in every assay! • 3. Prepare a 1:1000 fold dilution for each test compound, control, and standard for a 10e-5 M starting point. Do a 1:100 first, then a 1:10. • 4. Prior to diluting samples, vortex the samples and the controls for a homogeneous mixture. Note any sample that will not solubilize and/or stay in suspension. • 5. When the samples are at 10e-5 M, vortex each tube well and spin down fluid to ensure sample remains in tacked. Manual Dilution Protocol: • 1. After the tubes are at a final 1:1000 (10e-5 M) dilution, load the first column of the microtube box with the prospective sample. Load DMSO and positive control in singlets. The test compounds are loaded in duplicates. Load the remaining empty microtube racks with 540 μL of media to prepare for a serial dilution of 1:10. • 2. Agitate and transfer 60 μL from column 1 into successive wells containing 540 μL of media (1:10). Therefore, transfer 60 μL of column 1 into 540 μL of column 2. Resuspend column 2 about 10-15×'s then transfer 60 μL from column 2 to column 3 etc. Automated Dilution Protocol: • 1. Once the tubes are at a final 1:1000 (10e-5 M), load the first column of the microtube box with the prospective sample. Load DMSO and positive control in singlets. The compounds are loaded in duplicates. Load the remaining empty microtube racks manually with 540 μL of media to prepare for the automated serial dilution of 1:10 (see above diagram). • 2. […]

[1] = average linear IC50 across the 7 tumor cell panel, read-out: Avg.
[2] = average log IC50 across the 7 tumor cell panel, read-out: Avg. (log IC50) (converted)

| Structure (SMILES) | IC50 [1] [nM] | IC50 [2] [nM] | Avg. (nM) (average linear IC50 across the 7 tumor cell panel) | Avg. (log IC50) (average log IC50 across the 7 tumor cell panel) |
| --- | --- | --- | --- | --- |
| O=C1c2cccc3c(N4CCOCC4)ccc(c23)C(=O)N1CCNCCCN(CCN1C(=O)c2cccc3c(N4CCOCC4)ccc(c23)C1=O)C(=O)C(F)(F)F [Compound 54h, N, N′-(N-trifluoromethylacetyl, bis-aminoethyl-1,3-propanediamine)-bis-4-morpholino-1,8 naphthalimide] | 309 | 309 |  |  |
| CCN(CCCNCCN1C(=O)c2cccc3c(N4CCOCC4)ccc(c23)C1=O)CCN1C(=O)c2cccc3c(N4CCOCC4)ccc(c23)C1=O [Compound 30a, N, N′-(N-ethyl, bis-aminoethyl-1,3-propanediamine)-bis-4-morpholino-1,8 naphthalimide] | 3.98 | 3.98 |  |  |
| O=C1c2cccc3c(N4CCOCC4)ccc(c23)C(=O)N1CCNCCCNCCN1C(=O)c2cccc3c(N4CCOCC4)ccc(c23)C1=O [Compound 20, N, N′-(bis-aminoethyl-1,3-propanediamine)-bis-4-morpholino-1,8 naphthalimide] | 2.57 | 2.57 |  |  |
| O=C(CN1C(=O)c2cccc3c(N4CCOCC4)ccc(c23)C1=O)NCCCNC(=O)CN1C(=O)c2cccc3c(N4CCOCC4)ccc(c23)C1=O [Compound 34, N, N′-(bis-2-acetamido-1,3-propanediamine)-bis-4-morpholino-1,8 naphtbalimide] | 2190 | 2190 |  |  |
| CC(=O)N1CCN(c2ccc3c4c(cccc24)C(=O)N(CCNCCNCCN2C(=O)c4cccc5c(N6CCN(C(C)=O)CC6)ccc(c45)C2=O)C3=O)CC1 [Compound 63a, N, N′-(bis-aminoethyl-1,2-ethanediamine)-bis 4-(4-acetylpiperazino)-1,8 naphthalimide] | 4.47 | 4.47 |  |  |
| O=C1c2cccc3c(-n4ccnc4)ccc(c23)C(=O)N1CCNCCCNCCN1C(=O)c2cccc3c(-n4ccnc4)ccc(c23)C1=O [Compound 24b, N, N′-(bis-aminoethyl-1,3-propanediamine)-bis-(4-N-imidazolyl)-1,8 naphthalimide] | 0.41 | 0.407 |  |  |
| NCC(=O)N(CCCNCCN1C(=O)c2cccc3c(N4CCOCC4)ccc(c23)C1=O)CCN1C(=O)c2cccc3c(N4CCOCC4)ccc(c23)C1=O [Compound 54d, N, N′-(N-glycyl, bis-aminoethyl-1,3-propanediamine)-bis-4-morpholino-1,8 naphthalimide] | 324 | 324 |  |  |
| COCCOCCOCC(=O)N(CCCNCCN1C(=O)c2cccc3c(N4CCOCC4)ccc(c23)C1=O)CCN1C(=O)c2cccc3c(N4CCOCC4)ccc(c23)C1=O [Compound 54g, N, N′-(N-methylethoxyethoxyacetyloxy, bis-aminoethyl-1,3-propanediamine)-bis-4-morpholino-1,8 naphthalimide] | 692 | 692 |  |  |
| O=C(CN1C(=O)c2cccc3c(N4CCOCC4)ccc(c23)C1=O)NCCNCCCN1C(=O)c2cccc3c(N4CCOCC4)ccc(c23)C1=O [Compound 38] | 1820 | 1820 |  |  |
| CN1CCN(c2ccc3c4c(cccc24)C(=O)N(CCNCCCNCCN2C(=O)c4cccc5c(N6CCN(C)CC6)ccc(c45)C2=O)C3=O)CC1 [Compound 24a] | 0.71 | 0.708 |  |  |
| CC(=O)N1CCN(c2ccc3c4c(cccc24)C(=O)N(CCN2C=[N+](CCN4C(=O)c5cccc6c(N7CCN(C(C)=O)CC7)ccc(c56)C4=O)CC2)C3=O)CC1 [Compound 63b, N, N′-(bis-aminoethy-4,5-dihydro-imidazolium)-bis 4-(4-acetylpiperazino)-1,8 naphthaliinide] | 251 | 251 |  |  |
| O=C1c2cccc3cc([N+](=O)[O-])cc(c23)C(=O)N1CCNCCCNCCN1C(=O)c2cccc3c(N4CCOCC4)ccc(c23)C1=O [Compound 56a, N, N′-(bis-aminoethyl-1,3-propanediamine)-3-nitro, 4-morpholino-1,8 naphthalimide] | 1.62 | 1.62 |  |  |
| C[C@H](N)C(=O)N(CCCNCCN1C(=O)c2cccc3c(N4CCOCC4)ccc(c23)C1=O)CCN1C(=O)c2cccc3c(N4CCOCC4)ccc(c23)C1=O [Compound 54e, N, N′-(N-alanyl, bis-aminoethyl-1,3-propanediamine)-bis-4-morpholino-1,8 naphthalimide] | 126 | 126 |  |  |
| O=C1c2cccc3c(N4CCOCC4)ccc(c23)C(=O)N1CCN1C=[N+](CCN2C(=O)c3cccc4c(N5CCOCC5)ccc(c34)C2=O)CCC1 [Compound 57, N, N′-(bis-aminoethyl-1,4,5,6-tetrahydropyrimidinium)-bis-4-morpholino-1,8 naphthalimide] | 468 | 468 |  |  |
| O=C(CN1C(=O)c2cccc3c(N4CCOCC4)ccc(c23)C1=O)NCCCNCCN1C(=O)c2cccc3c(N4CCOCC4)ccc(c23)C1=O [Compound 41] | 3.39 | 3.39 |  |  |
| CN1CCN(c2ccc3c4c(cccc24)C(=O)N(CCNCCNCCN2C(=O)c4cccc5c(N6CCN(C)CC6)ccc(c45)C2=O)C3=O)CC1 [Compound 60, N, N′-(bis-aminoethyl-1,2-ethanediamrne)-bis-4-(4-methylpiperazino)-1,8 naphthalimide] | 1.05 | 1.05 |  |  |
| O=C1c2cccc3c(N4CCNCC4)ccc(c23)C(=O)N1CCNCCNCCN1C(=O)c2cccc3c(N4CCNCC4)ccc(c23)C1=O [Compound 58b, N, N′-(bis-aminoethyl-1,2-ethanediamine)-bis-4-piperazino-1,8 naphthalimide] | 26.9 | 26.9 |  |  |
| O=C1c2cccc3c(N4CCNCC4)ccc(c23)C(=O)N1CCN1C=[N+](CCN2C(=O)c3cccc4c(N5CCNCC5)ccc(c34)C2=O)CCC1 [Compound 59, N, N′-(bis-aminoetbyl-1,4,5,6-tetrahydropyrimidinium)-bis-4-piperazino-1,8 naphthalimide trifluoroacetate salt] | 1.51 | 1.51 |  |  |
| O=C1c2cccc3c(N4CCNCC4)ccc(c23)C(=O)N1CCNCCCNCCN1C(=O)c2cccc3c(N4CCNCC4)ccc(c23)C1=O [Compound 58a, N, N′-(bis-aminoethyl-1,3-propanediamine)-bis-4-piperazino-1,8 naphthalimide] | 1.7 | 1.7 |  |  |
| O=C1c2cccc3c(O)ccc(c23)C(=O)N1CCNCCCNCCN1C(=O)c2cccc3c(-n4ccnc4)ccc(c23)C1=O [Compound 65, N, N′-(bis-aminoethyl-1,3-propanediamine)-4-(N-imidazolyl)-4-hydroxyl-1,8 naphthalimide] | 288 | 288 |  |  |
| O=C1c2cccc3c(N4CCOCC4)ccc(c23)C(=O)N1CCOCCOCCN1C(=O)c2cccc3c(N4CCOCC4)ccc(c23)C1=O [Compound 54b, N, N′-(3,6-dioxaoctanylene)-bis-4-morpholino-1,8 naphthalimide] |  |  | NSA | NSA |
| CC(=O)N1CCN(c2ccc3c4c(cccc24)C(=O)N(CCNCCCNCCN2C(=O)c4cccc5c(N6CCN(C(C)=O)CC6)ccc(c45)C2=O)C3=O)CC1 [Compound 63c, N, N′-(bis-aminoethyl-1,3-propanediamine)-bis-4-(4-acetylpiperazino)-1,8 naphthalimide] | 1.1 | 1.1 |  |  |
| Nc1ccc2c3c(cccc13)C(=O)N(CCNCCCNCCN1C(=O)c3cccc4c(N5CCOCC5)ccc(c34)C1=O)C2=O [Compound 56b, N, N′-(bis-aminoethyl-1,3-propanediamine)-4-amino, 4-morpholino-1,8 naphthalimide] | 18.6 | 18.6 |  |  |
